# Tested on: HEK-Blue IL23 Reporter
# Assay: HEK-Blue IL-23 STAT3 Reporter Assay
# Assay type: cell-based, human
# Details: HEK-Blue IL23 cells stimulated with IL-23 overnight; SEAP read with QUANTI-Blue at OD655
# Description: HEK-Blue IL23 cells (InvivoGen catalog #HKB-IL23) are designed for the detection of bioactive IL-23 by monitoring the activation of the STAT3 pathway. They were generated by stably introducing the genes for the human IL-23 receptor, STAT3, and the SEAP (secreted embryonic alkaline phosphatase) reporter gene into human HEK293 cell line.
# Briefly, around 50,000 cells in DMEM medium supplemented with 10% heat inactivated FBS (˜180 ul) were seeded into each well and incubate for 48 hours at 37° C. with 5% CO2 in air. On day 3, one microliter of compound and 20 ul IL-23 were transferred to the assay plate respectively. The plate was left in the 37° C. incubator overnight. Two microliter of cell supernatant was transferred to a 384-well plate, and 18 ul of resuspended QUANTI-Blue solution was added to each well. SLAP levels were determined using Tecan Spark at OD655.
# Cells with no IL23 added were used as Low control. Cells stimulated with IL23 were used as High control. Inhibition rate was calculated with the formula of % inhibition=100*(High control−Treated Well)/(High Control−Low control). IL-23 reporter assay inhibition IC50 was calculated with the equation of Y=Bottom+(Top-Bottom)/(1+10^((Log IC50−X)*HillSlope)).
row,Compound,IC50 [nM]
1,[2H]C([2H])([2H])NC(=O)c1nnc(NC(=O)[C@H]2CC23CC3)cc1Nc1nccc2c1S(C)(=O)=NC2 (stereo partly drawn) [Compound 129],0.4
2,[2H]C([2H])([2H])NC(=O)c1nnc(NC(=O)[C@H]2CC23CC3)cc1Nc1nccc2c1S(C)(=O)=NC2 (stereo partly drawn) [Compound 130],59.9

# Same assay, conditions: Homo sapiens, HEK-Blue IL-23, HEK-Blue IL23 cells stimulated with IL-23 overnight; SEAP read with QUANTI-Blue at OD655
row,Compound,IC50 [nM]
1,[2H]C([2H])([2H])NC(=O)c1nnc(NC(=O)[C@H]2CC23CC3)cc1Nc1ncc(OCCOC)cc1S(C)(=O)=O [Compound 107],0.8
2,[2H]C([2H])([2H])NC(=O)c1nnc(NC(=O)[C@H]2CC23CC3)cc1Nc1ncc(OCCN(C)C)cc1S(C)(=O)=O [Compound 108],19.5
3,[2H]C([2H])([2H])NC(=O)c1nnc(NC(=O)[C@H]2CC23CC3)cc1Nc1ncc(C2(F)COC2)cc1S(C)(=O)=O [Compound 109],284
4,[2H]C([2H])([2H])NC(=O)c1nnc(NC(=O)[C@H]2CC23CC3)cc1Nc1ncc(OC2COC2)cc1S(C)(=O)=O [Compound 110],2.7
5,[2H]C([2H])([2H])NC(=O)c1nnc(NC(=O)[C@H]2CC23CC3)cc1Nc1ncc(OCC(C)(C)O)cc1S(C)(=O)=O [Compound 111],7.5
6,[2H]C([2H])([2H])NC(=O)c1nnc(NC(=O)[C@H]2CC23CC3)cc1Nc1ncc(OC[C@H](C)OC)cc1S(C)(=O)=O [Compound 112],2.7
7,[2H]C([2H])([2H])NC(=O)c1nnc(NC(=O)[C@H]2CC23CC3)cc1Nc1ncc(OC[C@@H](C)OC)cc1S(C)(=O)=O [Compound 113],1.2
8,[2H]C([2H])([2H])NC(=O)c1nnc(NC(=O)[C@H]2CC23CC3)cc1Nc1ncc(O[C@@H](C)COC)cc1S(C)(=O)=O [Compound 114],1
9,[2H]C([2H])([2H])NC(=O)c1nnc(NC(=O)[C@H]2CC23CC3)cc1Nc1ncc(O[C@H](C)COC)cc1S(C)(=O)=O [Compound 115],3.5
10,[2H]C([2H])([2H])NC(=O)c1nnc(NC(=O)[C@@H]2CC23CC3)cc1Nc1ncc(OCCOC(F)F)cc1S(C)(=O)=O [Compound 116],3
11,[2H]C([2H])([2H])NC(=O)c1nnc(NC(=O)[C@@H]2CC23CC3)cc1Nc1ncc(OCCOC=O)cc1S(C)(=O)=O [Compound 117],5.7
12,[2H]C([2H])([2H])NC(=O)c1cnc(NC(=O)[C@@H]2CC23CC3)cc1Nc1ncc(C2CC2)cc1S(C)(=O)=O [Compound 118],0.6
13,[2H]C([2H])([2H])NC(=O)c1cnc(NC(=O)[C@H]2CC23CC3)cc1Nc1ncc(Cl)cc1S(C)(=O)=O [Compound 119],6.2
14,[2H]C([2H])([2H])NC(=O)c1nnc(NC(=O)[C@H]2CC23CC3)cc1Nc1ncc(C(C)(C)O)cc1S(C)(=O)=O [Compound 120],14.7
15,[2H]C([2H])([2H])NC(=O)c1nnc(NC(=O)[C@H]2CC23CC3)cc1Nc1ncc(N2CCOC[C@H]2C)cc1S(C)(=O)=O [Compound 121],1.2
16,[2H]C([2H])([2H])NC(=O)c1nnc(NC(=O)[C@H]2CC23CC3)cc1Nc1ncc(N2CCOC[C@@H]2C)cc1S(C)(=O)=O [Compound 122],16.1
17,[2H]C([2H])([2H])NC(=O)c1nnc(NC(=O)[C@H]2CC23CC3)cc1Nc1nc(C2CC2)sc1S(C)(=O)=O [Compound 123],19.8
18,[2H]C([2H])([2H])NC(=O)c1nnc(NC(=O)[C@H]2CC23CC3)cc1Nc1ncc(N2CC(F)(F)C2)cc1S(C)(=O)=O [Compound 124],1.9
19,[2H]C([2H])([2H])NC(=O)c1nnc(NC(=O)[C@H]2CC23CC3)cc1Nc1nc(C)c(F)cc1S(C)(=O)=O [Compound 125],7.3
20,[2H]C([2H])([2H])NC(=O)c1nnc(NC(=O)[C@H]2CC23CC3)cc1Nc1ncc(C#N)cc1S(C)(=O)=O [Compound 126],17.4
21,[2H]C([2H])([2H])NC(=O)c1nnc(NC(=O)[C@H]2CC23CC3)cc1Nc1nc(C)sc1S(C)(=O)=O [Compound 127],6.4
22,[2H]C([2H])([2H])NC(=O)c1nnc(NC(=O)[C@H]2CC23CC3)cc1Nc1ncc(N2CC(F)C2)cc1S(C)(=O)=O [Compound 128],1
23,[2H]C([2H])([2H])NC(=O)c1nnc(NC(=O)C2CC2)cc1Nc1ncc(C(C)(C)O)cc1S(C)(=O)=O [Compound 131],9
24,[2H]C([2H])([2H])NC(=O)c1nnc(NC(=O)[C@H]2CC23CC3)cc1Nc1ncc(OC(F)(F)F)cc1S(C)(=O)=O [Compound 132],6.5
25,[2H]C([2H])([2H])NC(=O)c1nnc(NC(=O)[C@H]2CC23CC3)cc1Nc1ncc(N2CCC2)cc1S(C)(=O)=O [Compound 133],1.2

# From patent US12492184B2, “Heteroaryl compounds, preparation methods and uses thereof” (InventisBio Co., Ltd., priority 2020, dated 2025)
